In patent US7772180B2, “Hepatitis C virus inhibitors” (Bristol-Myers Squibb Company, priority 2006, dated 2010):

Legend:
[1] = test system: HCV replicon with Renilla luciferase reporter in HUH-7 cells; assay: HCV replicon luciferase reporter assay; assay type: cell-based, Hepatitis C virus
Description: An HCV replicon whole cell system was established as described by Lohmann V, Korner F, Koch J, Herian U, Theilmann L, Bartenschlager R., Science 285(5424): 110-3 (1999). This system enabled us to evaluate the effects of our HCV Protease compounds on HCV RNA replication. Briefly, using the HCV strain 1b sequence described in the Lohmann paper (Assession number: AJ238799), an HCV cDNA was synthesized by Operon Technologies, Inc. (Alameda, Calif.), and the full-length replicon was then assembled in plasmid pGem9zf(+) (Promega, Madison, Wis.) using standard molecular biology techniques. The replicon consists of (i) the HCV 5′ UTR fused to the first 12 amino acids of the capsid protein, (ii) the neomycin phosphotransferase gene (neo), (iii) the IRES from encephalomyocarditis virus (EMCV), and (iv) HCV NS3 to NS5B genes and the HCV 3′ UTR. […]
As a secondary assay, EC50 determinations from the replicon FRET assay were confirmed in a replicon luciferase reporter assay. […] Following 4 days in a 37° C./5% CO2 incubator, cells were analyzed for Renilla Luciferase activity using the Promega Dual-Glo Luciferase Assay System. […] Plates were read on a Packard TopCount NXT using a luminescence program.
The percentage inhibition was calculated using the formula below: […]
The values were graphed and analyzed using XLfit to obtain the EC50 value.

[2] = molecular target: T1, human neutrophil elastase (HNE) (Homo sapiens, UniProt P08246); assay: Specificity assay, human neutrophil elastase; assay type: biochemical; conditions: read-out: HLE activity in the specificity assays (IC50)
T1 construct: purchased Sigma, EMDbiosciences
T1 sequence (P08246 30-267): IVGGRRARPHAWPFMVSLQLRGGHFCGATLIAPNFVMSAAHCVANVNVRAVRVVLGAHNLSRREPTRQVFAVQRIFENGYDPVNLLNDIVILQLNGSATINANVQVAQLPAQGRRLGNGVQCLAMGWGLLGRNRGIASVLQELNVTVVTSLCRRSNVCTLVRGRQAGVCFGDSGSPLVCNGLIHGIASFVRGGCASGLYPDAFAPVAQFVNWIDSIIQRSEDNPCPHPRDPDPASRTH
Description: The specificities of compounds of the present disclosure were determined against a variety of serine proteases: human neutrophil elastase (HNE), porcine pancreatic elastase (PPE) and human pancreatic chymotrypsin and one cysteine protease: human liver cathepsin B. In all cases a 96-well plate format protocol using either colorimetric p-nitroaniline (pNA) substrate or fluorometric Amino-Methyl-Coumarin (AMC) specific for each enzyme was used as described previously (PCT Patent Application No. WO 00/09543) with some modifications to the serine protease assays. All enzymes were purchased from Sigma, EMDbiosciences while the substrates were from Bachem, Sigma and EMDbiosciences.
The pNA assay for Chymotrypsin included a 1 h enzyme-inhibitor pre-incubation at room temperature followed by addition of substrate and hydrolysis to ˜15% conversion as measured on a Spectramax Pro microplate reader. Compound concentrations varied from 100 to 0.4 μM depending on their potency. Cathepsin B, HNE, and PPE assays each was initiated by addition of substrate to enzyme-inhibitor pre-incubated for 10 min at room temperature and hydrolysis to 15% conversion as measured on cytofluor.
50 mM Tris-HCl, pH 8.0, 50 mM NaCl, 0.1 mM EDTA, 3% DMSO, 0.02% Tween-20, 5 μM succ-AAPV-AMC and 20 nM HNE or 8 nM PPE;
The percentage of inhibition was calculated using the formula: [1−((UVinh−UVblank)/(UVctl−UVblank))]×100 […]

In the case of `C=C[C@@H]1C[C@]1(NC(=O)[C@@H]1C[C@@H](Oc2nc(N(C)C)cc3cc(OC)ccc23)CN1C(=O)C(Nc1cc(C)cc(C)n1)C(C)(C)C)C(=O)NS(=O)(=O)C1CC1` (single isomer, unassigned) [Compound 18], the EC50 [1] is reported as 1.1 nM and the IC50 [2] is reported as > 1560 nM.
